Test system: Mycobacterium tuberculosis H37Rv growth inhibition, no glycerol
Assay: Mycobacterium tuberculosis H37Rv growth inhibition, no glycerol, confirmatory dose response (AID 449764);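 also: growth read after 7 days of incubation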
Conditions: for IC90: measured here: IC90 growth inhibition

SMILES	IC50	IC90
COc1ccc(NC(=O)CSc2nnc(-c3ccccn3)n2N)cc1Cl	55.6 µM	> 100 µM
Cc1ccc(-n2c(Cl)c(Cl)nc(Cl)c2=O)cc1	16.3 µM	24.8 µM
C=C(C)C1CC=C(CN2CCN(Cc3ccccc3)CC2)CC1 (stereo not drawn)	17.8 µM	22 µM
Cc1cccc(/C=C/c2onc(C)c2[N+](=O)[O-])n1	20.2 µM	26.8 µM
N#Cc1nccnc1S(=O)(=O)c1cccs1	59.3 µM	73.3 µM
COc1ccccc1C(=O)NC(=S)/C=C1/N(C)c2ccccc2C1(C)C	30.8 µM	46.8 µM
Cc1ccc(C(=O)O/N=C\c2ccc(N3CCCCC3)c([N+](=O)[O-])c2)cc1	53.4 µM	> 100 µM
O=C(N/N=C/c1cccc2cccnc12)[C@H]1C[C@@H]1c1ccccc1	38.2 µM	56 µM
COc1cccc(-c2nnc(NC(=O)c3ccc(S(=O)(=O)N4CCOCC4)cc3)o2)c1	32.4 µM	46 µM
CCOC(=O)CSc1nnc(-c2ccc(S(=O)(=O)NCc3cccs3)cc2)o1	5.1 µM	7.29 µM
COc1ccccc1-c1cc(C(=O)NC2CCN(C)CC2)c2ccc(Cl)c(C)c2n1	83.5 µM	> 100 µM
CC(C)CCC[C@@H](C)[C@H]1CC[C@H]2[C@@H]3C(=O)C=C4C[C@@H](O)CC[C@]4(C)[C@H]3CC[C@]12C	38.5 µM	62.9 µM
c1ccc2nc(-c3ccc(-n4ccnc4)cc3)ccc2c1	31 µM	42.5 µM
O=C(Oc1ccccc1)c1ccccc1OS(=O)(=O)c1ccccc1	2.37 µM	14.1 µM
O=C1/C(=C/Nc2ccc3c(c2)OCO3)CCc2ccccc21	74.7 µM	> 100 µM
Cn1cnnc1SCc1ccc(C(=O)N=Nc2c(O)n(Cc3ccc(Cl)cc3)c3ccccc23)cc1	3.04 µM	3.38 µM
O=C(OCC(=O)N1CCC(c2ccccc2)=N1)c1ccc(Cl)s1	97.6 µM	> 100 µM
CCOc1ccc(C2c3[nH]c4ccccc4c3C[C@H]3C(=O)N(C4CCN(Cc5ccccc5)CC4)CC(=O)N23)cc1OC (stereo partly drawn)	23.7 µM	> 100 µM
CCC(C)(C)c1ccc(OCCCC[n+]2ccc(C)cc2)c(C(C)(C)CC)c1	12 µM	13.8 µM
CC1CCC(NC(=O)c2cc3c(s2)CCCC3)CC1 (stereo not drawn)	67.7 µM	> 100 µM
CCOC(=O)c1ccc(NC(=O)Cn2ncc(Cl)c(Cl)c2=O)cc1	< 0.2 µM	2.19 µM

SMILES	IC50	IC90
Cc1ccc2[nH]c(C)c(CCNC(=O)c3cc4cc([N+](=O)[O-])ccc4oc3=O)c2c1	11.2 µM	17.8 µM
Cn1c2ccccc2c2cc(C(=O)NNC(=O)CCl)sc21	4.41 µM	8.11 µM
O=c1[nH]c(CSc2cccc[n+]2[O-])nc2ccccc12	89.1 µM	99.6 µM
O=C(NCCc1ccccc1)[C@@H]1CC=C[C@@H]2CCN(Cc3ccc(Cl)c(Cl)c3)C(=O)[C@@H]21	63.8 µM	85.5 µM
COc1ccc(/C=N/Nc2cc(C)nc3ccc(OC)cc23)c(OC)c1	16.3 µM	19.7 µM
Cc1ccc(Cn2nnnc2CN2CCC(c3nc4ccc(Cl)cc4[nH]3)CC2)cc1	31 µM	40.8 µM
CCOC(=O)c1sc2nc(C)nc(SC(C)C(=O)N(C)c3ccccc3)c2c1C (stereo not drawn)	34.8 µM	44.6 µM
Cn1cnc([N+](=O)[O-])c1Sc1ccc(Br)cc1	19.6 µM	26.1 µM
Cn1c(SCc2ccccc2)nc(N)c(N=O)c1=O	18.4 µM	25.6 µM
CN1CCN(C2=Cc3ccc(Cl)cc3Sc3ccc(F)cc32)CC1	25.9 µM	35.5 µM
C#CCn1c(=NC(=O)c2cc(Cl)sc2Cl)sc2cc(S(N)(=O)=O)ccc21	12 µM	34.1 µM
Cc1cc(C)n(-c2nc(Nc3ccccc3C(F)(F)F)nc(-n3nc(C)cc3C)n2)n1	1.3 µM	2.01 µM
CC(C)COCc1ccc(O)c2ncccc12	2.18 µM	2.59 µM
CSC(=S)N/N=C/c1ccccc1	39.8 µM	54.1 µM
CNC(=S)Nc1ccc(N2CCN(c3ccc(C(F)(F)F)cn3)CC2)nc1	9.42 µM	> 100 µM
O=C1C2(Cl)C3(Cl)C4(Cl)C(Cl)(Cl)C5(Cl)C3(Cl)C1(Cl)C5(Cl)C24Cl (stereo not drawn)	44.4 µM	65.2 µM
Nc1cc([N+](=O)[O-])ccc1Nc1ccc(O)cc1	30.6 µM	36.6 µM
CCN1C(=NCCc2ccc(Br)cc2)N[C@@H](c2ccccc2)[C@H](C(=O)OC)[C@H]1C	22.4 µM	25.8 µM
COC(=O)/C(=C1/Oc2cc(C)oc(=O)c2S1)C(F)(F)F	26 µM	> 100 µM
Oc1c(C(c2ccccc2Cl)N2CCCC2)ccc2cccnc12 (stereo not drawn)	31.2 µM	37.7 µM
Cc1sc2ncnc(Oc3ccc(-n4ccnc4)cc3)c2c1C	39.1 µM	61 µM

SMILES	IC50	IC90
Cc1nc(NC(=O)c2ccccc2)sc1C1(C)CC(c2ccc(OC(F)(F)F)cc2)=NO1 (stereo not drawn)	29.7 µM	60.4 µM
COc1ccccc1NC(=O)Nc1nc(CC(=O)N2CCN(c3ccccc3F)CC2)cs1		> 100 µM
C/C(=N\Nc1ccc(S(=O)(=O)N2CCCCC2)cn1)c1cccc(Br)c1	39.2 µM	> 100 µM
Cc1nn(-c2ccccc2)c(N)c1N=Nc1ccc(Cl)cc1	52.1 µM	> 100 µM
CC1(C)Cc2c(sc(NC(=O)c3ccc(C(=O)c4ccccc4)cc3)c2C(N)=O)C(C)(C)N1	22.9 µM	> 50 µM
CCOC(=O)c1ccc(NC(=O)CCc2nc(-c3ccc(Cl)cc3)no2)cc1	48.1 µM	> 100 µM
COC(=O)c1c(NC(=O)C(=O)N2CCCC2)sc2c1CC(C)(C)OC2	65.3 µM	> 100 µM
C=CCc1c(C)nc(SC)nc1Nc1ccc(C(C)=O)cc1	34.6 µM	52.4 µM
O=C(CN1CCN(c2ccccc2O)CC1)Nc1ccccc1C(=O)NCCc1ccccc1	72.7 µM	> 100 µM
COc1cc2nc(Nc3ccc(C)c(Cl)c3)nc(N)c2cc1OC	58.7 µM	66.8 µM
Cc1cc(N2CCC(C)CC2)nc(-n2nc(C)cc2C)n1	0.97 µM	2.97 µM
COc1cccc(N2CCN(c3ncnc4c3[nH]c3ccccc34)CC2C)c1 (stereo not drawn)	27.1 µM	42.5 µM
O=C(c1cc2ccccc2o1)N1CCN(S(=O)(=O)c2ccc(Cl)s2)CC1	15.6 µM	56 µM
CN(C)CCCN(C(=O)c1cc(-c2cccs2)nc2ccccc12)c1nc2ccc(F)cc2s1	34.9 µM	54.3 µM
CCN1CCN(CCCNC(=O)c2ccc(/C=C3/Oc4ccccc4N(Cc4cccc(C)c4)C3=O)cc2)CC1	45.2 µM	48.1 µM
CCCNC1=C(N(C(C)=O)c2cccc(F)c2)C(=O)c2ccccc2C1=O	12.2 µM	15.6 µM
CCN(CC)CCCNc1nc2cc(OC)c(OC)cc2c2nc(-c3ccccc3)nn12	11.1 µM	12.8 µM
COc1ccccc1N1CCN(/N=C/C(Cl)=C/c2ccccc2)CC1	89.6 µM	> 100 µM
Cc1nc2ccc(NC(=O)c3ccc([N+](=O)[O-])cc3[N+](=O)[O-])cc2s1	35.7 µM	> 100 µM
COc1ccccc1NC(=O)C(C)OC(=O)/C=C/c1ccc2ccccc2n1 (stereo not drawn)	6.99 µM	13.1 µM

Reference: PubChem BioAssay AID449764 (Southern Research Specialized Biocontainment Screening …, 2010)
